Here are results for three compounds from patent publication US10919941B2, “Functional lipid constructs” (KODE BIOTECH LIMITED, priority 2007, dated 2021).

Where two headings read alike, the source gives them in different places.

One series relates to group 0 RBCs. Conditions: construct 0.5 mg/ml.
For series [1], the system named is RL95-2 monolayers.
Another series deals with A group red blood cells. Conditions: construct 1 mg/mL, 37° C. 2 hours; wells washed 3× with PBS.
For a further series, the system named is spermatozoa. Here is the method:
Spermatozoa were washed and isolated by layering 1.1 mL of fresh semen over a gradient of SpermGrad 125 (Vitrolife 10099; 2 mL of 40% solution over 2 mL of 80% solution in a 15 mL round bottom tube) and centrifuging at 500×g for 20 min.
The bottom layer of the gradient (c. 0.7 mL was transferred to 4 mL round bottom tubes and c. 2 mL flushing (handling) media (Medicult 10840125A) added. The tube was centrifuged at 300×g for 10 min and the spermatozoa washed two more times (mixing by tube inversion).
Samples of washed spermatozoa were incubated overnight at 37° C. in a 5% CO2 atmosphere.
Open tubes were incubated at 37° C. in a 5% CO2 atmosphere prior to addition of c. 70 μL spermatozoa (c. 25×10^6/mL) to each tube and incubation for 120 min (A), 60 min (B), 30 min (C), 10 min […] and 120 min (E).
Following incubation a couple of drops of flushing media were added and the tubes centrifuged at 300×g for 5 min. The spermatozoa were washed two more times with flushing media and before being re-suspended in culture media to a final volume of 100 μL.
Streptavidin beads at a concentration of c. 6.25×10^6/100 μL were diluted 35 times in BSA plus flushing media to provide a ratio of 0.1 beads/spermatozoa when mixed in equal volume with a diluted suspension of the modified spermatozoa.
A volume of 5 μL of a diluted suspension of the modified spermatozoa was mixed on a slide with 5 μL of a diluted suspension of streptavidin beads and covered with a coverslip.
The mixture was observed under a microscope at 400× magnification.
The assessment of the attachment of streptavidin beads to modified spermatozoa is recorded in Table 27.

The next series concerns red blood cells. As to the kind of experiment: Avidin-Alexafluor fluorescence of RBCs modified with biotin-lipid construct. It counts as cell-based. The arrangement: key: 0 (no fluorescence observed); 4 (maximum fluorescence observed). To be noted: for fluorescence score (Avidin-AF), RBCs: Day 0. As to the method:
A stock solution of Avidin-Alexafluor (Avidin-AF) was prepared in sterile phosphate buffered saline (PBS) at a concentration of 2 mg/mL. A stock solution of biotinylated gangliocide (BioG) was prepared in sterile PBS at a concentration of 5 mg/mL.
Incubations were performed in a plastic ependorf tube of nominal volume 1.5 mL for 2 hours at 37° C. in a water bath. O group RBCs were incubated with a solution of BioG at a concentration of 0.33 mg/mL as a positive control.
Incubated RBCs were washed 3 times with PBS in a mini centrifuge. Fluorescent labeling of the washed, modified RBCs was performed by adding 10 μL of a solution of Avidin-AF at a concentration of 0.1 mg/mL. The RBCs were then incubated in the dark for 1 hour at 37° C. in a water bath and washed 3 times with PBS.
85% solution of the washed, fluorescent labeled RBCs were viewed on a slide with cover slip under a fluorescent microscope at 488 nm and photographic exposure of 1.903 (FIG. 6). The intensity of the fluorescent signal was recorded using a scoring system of 0 (no fluorescence observed) to 4 (maximum fluorescence observed).
Retention of the construct by the RBCs was assessed by incubation with Avidin-AF as before.

The subject of series [2] is RL95-2 monolayers. As to the method:
The modification of monolayers of the cell line RL95-2 (established from a human endometrial adenocarcinoma (ATCC HTB CRL 1671)) in serum-free and serum-containing media was evaluated.
D-MEM/F12 (Gibco 11320-033, Invitrogen NZ) containing 1% penicillin/streptomycin (Gibco 15140-122, Invitrogen NZ) was used as a serum-free medium. D-MEM/F12 10% FBS (Gibco 10091-130, Invitrogen NZ) containing 1% penicillin/streptomycin and […] insulin (Gibco 12585-014, Invitrogen NZ) was used as a serum-containing medium.
A suspension of the cell line RL95-2 was diluted in pre-warmed serum-containing media to the required concentration e.g. 4×10^5 cells/mL. A 25 μL volume of the suspension was used to seed the required wells in a Terasaki tray so that each treatment was performed in duplicate. The plates were incubated overnight in a 5% CO2, 37° C. incubator until the monolayer was approximately 60% confluent.
Trays were incubated at 37° C., 5% CO2 for 120 min.
The cells were then washed and a 12 μl volume of a 0.1 mg/mL solution of Avidin Alexa Fluor® 488 added. The cells were then incubated at room temperature for a further 30 minutes in the dark.
The monolayers were finally washed 3 times with PBS, the trays inverted and photographed using an Olympus BX51 fluorescent microscope at 200× magnification, exposure time 475 ms (FIG. 12).
The source holds these as a separate data set.

For another series, the system named is murine embryos. Kind of series: Avidin-Alexafluor fluorescence of murine embryos modified with biotin-lipid construct. The series is classed as cell-based. As to the method: Murine embryos (morula/early blastocyst stage, 3.5 day) were incubated in 50 microlitre microdrops in Blastassist™ culture media.
The zona pellucida of the embryos was removed by treatment with 0.5% pronase (4 minute incubation) and washing 3 times in embryo handling media prior to introduction into the microdrops. Each microdrop was equilibrated 5% CO2 at 37° C. overnight prior to introduction of the embryos.
Microdrops containing embryos and BioG were incubated for 40 minutes in 5% CO2 at 37° C.
Following incubation each group of embryos was washed 3 times in handling media and transferred to 50 microlitre microdrops containing 2 mg/ml, Avidin-AF microdrops for fluorescent labelling. The microdrops containing transferred embryos were incubated at 37° C. for 30 minutes in the dark.
Each group of embryos was then washed 3 times in handling media and mounted on a glass microscope slide for viewing. Embryos were viewed under a fluorescent microscope at 488 nm. The intensity of the fluorescence was recorded using a scoring system of 0 (no fluorescence) to 4 (maximum fluorescence).

The next series deals with RL95-2 cells. To be noted: for Mean Fluorescence: T = 24 hr, Serum-containing.
The conditions of series [3]: 25° C.; cited from earlier work.
Series [4] addresses Miltenberger antigen MiIII on natural human red cells (human) (UniProt P02724). Kind of series: AHG; cell R2R2 11297161.
Series [5] shares this target. Kind of series: AHG; cell R1Rz 11291347.
Series [6] has the same target. Kind of series: AHG; cell Abtectcell III 8245009.
The target of series [7] is Miltenberger antigen Mi?X on natural human red cells (human). Kind of series: BioVue AHG; cell C.BR.
Series [8] deals with Miltenberger antigen MiIII on natural human red cells (human) (UniProt P02724). Kind of series: saline phase; cell R2R2 11297161.
Series [9] has the same target. As to the kind of experiment: BioVue AHG; cell 11297161.
The target of series [10] is Miltenberger antigen Vw on natural human red cells (human) (UniProt P02724). As to the kind of experiment: BioVue AHG; cell 9422184.
The target of series [11] is Miltenberger antigen MiIII on natural human red cells (human) (UniProt P02724). Kind of series: saline phase; cell R1Rz 11291347.

Procedure for A group red blood cells: A volume of 60 μL washed A group red blood cells (RBCs) was modified by incubation with 20 μL of the dilution of the construct at 37° C. for 2 hours.
The modified RBCs were washed twice in PBS and once in Celpresol™ as described above. A 2% cell suspension of washed cells (modified or control) was prepared in Celpresol™ and cell concentration (150×10^6/mL) determined using a haemocytometer. Similarly the concentration of a suspension streptavidin beads (134×10^6/mL) was determined.
A volume of 50 μL of a suspension of RBCs was added to provide a bead to RBC ratio of c. 1:1 and incubated at room temperature for 1 hour to allow RBCs to settle.
The wells were washed 3× with PBS, aspirating the washing solution with a pipette.
Procedure for group 0 RBCs: Unmodified group A RBCs were used as a second population of cells.
Both populations of cells were incubated for 37° C. for 2 hrs in a water bath and then washed 2× in PBS and 1× in Celpresol using an Immufuge II (low, 1 min). The concentration of cells in each suspension was made up to 2% by adding 1.5 mL.
The suspensions of RBCs were mixed with avidinylated magnetic Dynabeads at an approximate ratio of RBC:bead of 1 and incubated for 10 min at room temperature on a gyrator. Samples of the first and second populations of RBCs were then mixed in equal volumes (35 μl each) in an ependorf tube for two minutes.
The contents of the ependorf were transferred to the well of a 96-well plate and a magnet was applied to the underside of the well for 1 minute. The supernatant was carefully removed with the magnet applied and without disruption of the beads. The blood grouping of the cells of the supernatants were then assessed by applying 30 μl of supernatant and 30 μl anti-A antibody to a Dynamed™ gel card. Cards were spun for 10 min in a centrifuge.

On to Biotin-CMG(2)-Ad-DOPE, for which the “retention of modified group 0 RBCs by the magnet from mixture with unmodified group A RBCs” value in the series with group 0 RBCs is “Retention of the 0 group RBCs by the magnet was demonstrated”. Moreover, the results for the “internalisation of Avidin Alexa Fluor 488 fluorescence” value with RL95-2 monolayers [1] (incubated at 4° C.) and in the series with RL95-2 monolayers [1] (incubated at 37° C.) were “No internalization was observed” and “fluorescence starts to internalize within 4 hr”, respectively. The “retention of modified RBCs by streptavidin beads on magnet after washing” value with A group red blood cells is “retained”. Besides, the “Number of beads attached to spermatozoa” value in the series on spermatozoa (treatment A, incubation time 120 min, 30 min, with cross-linking) is recorded as 10-15 (with; in the series with spermatozoa (treatment A, incubation time 120 min, Immediate), 10-12; in the series on spermatozoa (treatment B, incubation time 460 min, 30 min), 8; in the series with spermatozoa (treatment C, incubation time 30 min, 30 min) it was 3; in the series with spermatozoa (treatment C, incubation time 30 min, Immediate), 1-3; in the series with spermatozoa (treatment D, incubation time 10 min, 30 min) it was 1. Moreover, in the series on spermatozoa (treatment D, incubation time 10 min, Immediate), the “Number of beads attached to spermatozoa” value is 1. The “fluorescence score (Avidin-AF), RBCs” value is given as 0 in the series with red blood cells (dilution 0.001 mg/ml), 1 in the series on red blood cells (dilution 0.01 mg/ml), 2 in the series on red blood cells (dilution 0.1 mg/ml) and 4 with red blood cells (dilution 1 mg/ml). In the series with red blood cells (dilution 1 mg/ml, Day 14 of storage), the “fluorescence score (Avidin-AF), RBCs, retention” value was determined as 4. In addition, the “Mean Fluorescence” value in the series with RL95-2 monolayers [2] (100 μg/mL, insertion time 30) is 3; in the series with RL95-2 cells (20 μg/mL), 0; with RL95-2 cells (100 μg/mL), 0. In the series on RL95-2 monolayers [2] (construct 20, 100 and 500 μg/mL), the “fluorescence of RL95-2 cell membrane, serum-free media” value is recorded as “homogenous intense fluorescent signal”. Further, the “fluorescence of RL95-2 cell membrane, serum-containing media” value with RL95-2 monolayers [2] (same concentrations (20, 100 and 500 μg/mL)) is listed as “weakened fluorescence”. Moreover, the “intensity of fluorescence versus insertion time” value in the series with RL95-2 monolayers [2] (serum-free media) is recorded as “increased with increasing insertion time”. Further, the “fluorescence score (Avidin-AF), murine embryos” value in the series on murine embryos (0.1 mg/mL, n = 21) was found to be 2; in the series on murine embryos (1 mg/mL, n = 19) it was 1; in the series on murine embryos (2 mg/mL, n = 19), 1. Besides, the “fluorescence 24 hr post-insertion, serum-free media” value in the series on RL95-2 cells (RL95-2 cells, reduced from T=0) is “Fluorescence was detected”.
In the case of `O=C(O)CCCC[C@@H]1SC[C@@H]2NC(=O)N[C@@H]21` [Biotin, [3aS-(3aα, 4β, 6aα)]-hexahydro-2-oxo-1H-thieno[3,4-d]imidazole-4-pentanoic acid], in series [3], the “solubility in 95% alcohol” value is “approximately 80 mg/100 mL” and the solubility in water entry was “approximately 22 mg/100 mL”.
TAP1: the agglutination score in series [4] was found to be 10; in [5] it was 10; in series [6] it was 10; in [7] it was 12; in [8], 8; in [9], 10. In addition, the values for the agglutination score in series [10] and in [11] were 5 and 8, respectively.
